Where two headings read alike, the source gives them in different places.
Columns and labels:
Type in all cases: cell-based
[1] = tested on: nod genes in Bradyrhizobium japonicum strain USDA3; conditions: for nod gene induction (β-galactosidase activity): USDA3 (GG4), control 362 ± 25; for expression of nod genes (β-galactosidase assay), in words: FIG. 1; for synergistic effect on β-galactosidase activity: simultaneous addition with genistein (5 μM), FIG. 2
Protocol: Bradyrhizobium japonicum strain USDA3, harboring plasmid GG4, was used in the experiment. Plasmid GG4 contains a translational fusion between B. japonicum nod Y open-reading frame and lac Z of Escherichia coli.
(§1) Bacteria were grown in yeast extract mannitol (YEM) medium (mannitol 10.0 g, K2HPO4 0.5 g, MgSO4.7H2O 0.2 g, NaCl 0.1 g, and yeast extract 0.4 g dissolved in 1000 mL of dd H2O). In order to ensure the maintenance of the strains, tetracycline was added to the bacterial cultures at a concentration of 20 mg 1^−1. One hundred mL cultures of each strain, in 250 mL flasks, were shaken at 150 rev min^−1 at 30° C. for 3-5 days and then subcultured into 400 mL of fresh medium in 1000 mL flasks. The cultures were incubated until the OD620 reached 0.2-0.3. The cultures were then divided into 5 mL tubes (sterilized).
(§2) Stock solutions of various inducers: genistein, salicylic acid and acetylsalicylic acid made in methanol and linolenic, linoleic, and jasmonic acid and methyl jasmonate were made in ethanol, and an appropriate amount of these inducers was added into the tubes before addition of bacterial culture. In the tubes, the final concentration of all the inducers was maintained as 5, 10, 25, 50 and 100 μM. Tubes were collected after 18 h of incubation and stored at −20° C. until the β-galactosidase activity was measured. Genistein (4′,5,7, trihydroxyisoflavone, purity 98%,), linolenic acid (9,12,15-Octadecatrienoic acid, purity 99%), linoleic acid (cis-9, cis-12-Octadecadienoic acid, purity 99%), jasmonic acid (±Jasmonic acid, C12H18O3) and salicylic acid (2-hydroxybenzoic acid, purity 99.0%) were obtained from Sigma, while acetylsalicylic acid (C9H8O4, 99% purity) was obtained from Acros and methyl jasmonate (95% purity) was obtained from Aldrich Chemical Company, Inc.
(§3) β-galactosidase is an enzyme which hydrolyzes β-D-galactosides. The activity of this enzyme can easily be measured with colorless substrates, which upon hydrolysis produce colored products. O-nitrophenyl-β-galactoside (ONPG) is a colorless compound and is converted to galactose and O-nitrophenol in the presence of β-galactosidase. The O-nitrophenol is yellow and can be measured by its absorption at 420 nm. In the present study, nod gene expression was indirectly measured by β-galactosidase activity following the method of Miller (1972) as modified by Stachel et al, (1985). Briefly, 0.5 mL culture was mixed with 2×Z buffer (Na2HPO4.7H2O, 16.1 g, NaH2PO4.H2O, 5.5 g, KCl 0.75 g, MgSO4.7H2O 0.246 g, β-mercaptoethanol 2.7 g, pH 7.0 dissolved in 500 mL water) and 40 μL toluene and vortexed for 10 seconds. The culture was then incubated in a water bath at 37° C. for 30 minutes and then 0.2 mL of O-nitrophenyl β-D-galactopyranoside (ONPG) was added at a concentration of 4 mg mL^−1. The cultures were incubated again in the water bath until the color of the culture changed. The reaction time was recorded and the reaction was stopped with 1M Na2CO3. After centrifugation at 10,000 rpm for 4 minutes, spectrophotometric reading at OD420 and OD600 were taken and the β-galactosidase activity was measured (β-galactosidase activity=OD420*1000/OD600*T*V, where T is the reaction time and V is the volume of the bacterial culture used for enzyme assay).
The experiment was designed in a randomized complete block design (RCBD) with three replicates. […] Data are shown from the second experiment. Statistical analysis of the data was done with analysis of variance using the Statistical Analysis System computer package (SAS Institute, 1988). Comparisons among treatment means were made with an ANOVA protected LSD at the 0.05 level of statistical significance.

[2] = tested on: nod genes in Bradyrhizobium japonicum strain USDA121; assay: nod gene induction, β-galactosidase assay, strain USDA121 (GG3); conditions: control 476.8 ± 86.6
Protocol: as §1, §2, §3
(§4) The effect of 0-100 μM concentrations of each of acetylsalicylic acid, salicylic acid, jasmonic acid, methyl jasmonate, and genistein, on induction of nod gene expression in Bradyrhizobium japonicum strains USDA31, USDA76, USDA121, and USDA3, was evaluated in accordance with the β-galactosidase assay of Experiment 1 in Example 1 above.

[3] = tested on: nod genes in Bradyrhizobium japonicum strain USDA31; assay: nod gene induction, β-galactosidase assay, strain USDA31 (GG1)
Protocol: as §1, §2, §3, §4

[4] = tested on: nod genes in Bradyrhizobium japonicum strain USDA76; assay: nod gene induction, β-galactosidase assay, strain USDA 76 (GG2); conditions: control 411.8 ± 26.8
Protocol: as §1, §2, §3, §4

[5] = 5 μM, control without inducer 522.6 ± 15.9
[6] = concentrations from 25 to 100 μM

| Compound | nod gene induction (β-galactosidase activity) ([1]; 5 μM) | nod gene induction (β-galactosidase activity) ([1]; 10 μM) | nod gene induction (β-galactosidase activity) ([1]; 25 μM) | nod gene induction (β-galactosidase activity) ([1]; 50 μM) | nod gene induction (β-galactosidase activity) ([1]; 100 μM) | nod gene induction (β-galactosidase activity) ([2]; 5 μM) | nod gene induction (β-galactosidase activity) ([2]; 10 μM) | nod gene induction (β-galactosidase activity) ([2]; 25 μM) | nod gene induction (β-galactosidase activity) ([2]; 50 μM) | nod gene induction (β-galactosidase activity) ([2]; 100 μM) | nod gene induction (β-galactosidase activity) [3, 5] | nod gene induction (β-galactosidase activity) ([3]; 10 μM, control 522.6 ± 15.9) | nod gene induction (β-galactosidase activity) ([3]; 25 μM, control 522.6 ± 15.9) | nod gene induction (β-galactosidase activity) ([3]; 50 μM, control 522.6 ± 15.9) | nod gene induction (β-galactosidase activity) ([3]; 100 μM, control 522.6 ± 15.9) | nod gene induction (β-galactosidase activity) ([4]; 5 μM) | nod gene induction (β-galactosidase activity) ([4]; 10 μM) | nod gene induction (β-galactosidase activity) ([4]; 25 μM) | nod gene induction (β-galactosidase activity) ([4]; 50 μM) | nod gene induction (β-galactosidase activity) ([4]; 100 μM) | other results |
| --- | --- | --- | --- | --- | --- | --- | --- | --- | --- | --- | --- | --- | --- | --- | --- | --- | --- | --- | --- | --- | --- |
| O=c1c(-c2ccc(O)cc2)coc2cc(O)cc(O)c12 [GEN, 5,7,4′-trihydroxyisoflavone] | 3304 ± 333 | 2500 ± 94 | 2300 ± 219 | 1930 ± 74 | 406 ± 15 | 2081.7 ± 148.5 | 1685.1 ± 53.3 | 1286.8 ± 145.5 | 1154.5 ± 121.1 | 430.9 ± 80.6 | 2283.8 ± 57.7 | 2007.6 ± 36.7 | 1821 ± 89.2 | 1121.1 ± 156.9 | 491.9 ± 31.6 | 1421.7 ± 93.4 | 1320.8 ± 75.99 | 1383.8 ± 98.22 | 1160.7 ± 89.7 | 413.7 ± 7.4 | optimum concentration for nod gene induction ([1]; USDA3, β-galactosidase assay): 5 µM |
| CC/C=C\C[C@H]1C(=O)CC[C@@H]1CC(=O)O [JA, [1R-[1α,2β(Z)]]-3-oxo-2-(pentenyl)cyclopentaneacetic acid] | 368 ± 23 | 362 ± 9 | 3200 ± 230 | 3900 ± 150 | 550 ± 210 | 540.3 ± 79.3 | 473.7 ± 58.3 | 496 ± 49.2 | 412.7 ± 22.9 | 329.5 ± 19.3 | 1653.3 ± 105.2 | 2079 ± 254.9 | 1853.3 ± 314.5 | 1884.3 ± 289.3 | 796 ± 67.3 | 393.5 ± 30.5 | 447.9 ± 21 | 420.1 ± 4.6 | 375.1 ± 35.3 | 357.7 ± 9.7 | expression of nod genes (β-galactosidase assay), in words ([1]; concentrations 10 μM or less): showed no activity; expression of nod genes (β-galactosidase assay), in words [1, 6]: strongly induced the expression of nod genes; synergistic effect on β-galactosidase activity [1]: did not result in any synergistic effect |
| CC/C=C\CC1C(=O)CCC1CC(=O)OC (stereo not shown) [MeJA, methyl jasmonate] | 448 ± 30 | 500 ± 61 | 3000 ± 350 | 4700 ± 450 | 4500 ± 400 | 518 ± 42.6 | 487.1 ± 33 | 427 ± 29.4 | 549.2 ± 81.6 | 487.9 ± 89.3 | 472.2 ± 14.8 | 485.3 ± 42.5 | 403.3 ± 5.6 | 500.1 ± 32 | 392.9 ± 22.7 | 435.4 ± 39 | 418.4 ± 53.1 | 392.7 ± 2.1 | 410.4 ± 24.5 | 386.4 ± 37.3 | expression of nod genes (β-galactosidase assay), in words ([1]; concentrations 10 μM or less): showed no activity; expression of nod genes (β-galactosidase assay), in words [1, 6]: strongly induced the expression of nod genes; synergistic effect on β-galactosidase activity [1]: did not result in any synergistic effect |

— US7262151B2, “Methods and compositions for production of lipo-chito oligosaccharides by rhizobacteria” (McGill University, priority 2001, dated 2007)
